These results are taken from patent US10813980B2, “Methods for treating osteoarthritis by administering linked variants of growth hormone and somatostatin” (REGULAXIS, priority 2016, dated 2020).

Where “and” joins values, the source holds several entries; their conditions need not be identical. Equal entries are not always repeated. No end group written: not given here.

The subject of data set [1] is male Duncan-Hartley guinea pigs. Description: In vivo efficiency in guinea pig spontaneous knee osteoarthritis, intra-articular injection, histological analysis. The note with it: for cartilage thickness / sum of the scores representing the degradation of several structures in the joint (total scoring of degradation parameters): five month after intra-articular injection of 50 μl per knee; for cartilage thickness: * p<0.05; for sum of the scores representing the degradation of several structures in the joint (total scoring of degradation parameters): peptide 10^−7 M, vs control and hyaluronic acid alone. How it is done: Peptide of the invention (corresponding to SEQ ID NO: 4) was dissolved at 2.5 mg/ml in water for injection (CDM Lavoisier) to make a stock solution conserved at −20° C. The syringe was prepared by aspiration of 50 μl of peptide work solution prepared just before use at 10^−7 M (other concentrations are tested) in NaCl 0.9% and kept on ice until use.
The study was performed on male Duncan-Hartley guinea pigs (Harlan), whose particularity is to be affected with age of spontaneous and progressive degeneration of the knee that closely resembles knee osteoarthritis (OA) in humans. Seven 5-month-old animals (weighing 879 g.+/−58.1) were injected per group. Animals were treated in accordance with institutional animal care guidelines. Animals were anesthetized with an anesthesia module (Minerva) with a rapid induction device (4% isoflurane) and anesthesia was maintained using a specific device mask in guinea coaxial (2.5% isoflurane). 50 μl of the peptide of the invention or control—salt solution or Hyalgan® (10 mg/ml solution of MW 500-730 kDa hyaluronic—Laboratoire Expanscience, available in the market)—were injected on each hind legs of the animal into the joint space from the lateral side using a 29 G needle. This was followed by passive knee joint movements to facilitate the intra-articular distribution of the solution.
Five month after injection, the two knee joints from each animal were fixed for 36 to 48 hours in 10% buffered formalin then kept in 70% ethanol and followed by decalcification in 15% EDTA in phosphate buffer. Paraffin sections (3-4 μm) of the central region of the joint were stained with haematoxylin and eosin for histological analyses of cartilage structure, namely: loss of cartilage matrix, cellular abnormalities, appearance of articular cartilage mineralization front, formation of osteophytes and synovial membrane (microscopy: Nikon 80i). A semi-quantitative modified Mankin histological grading system was used to evaluate OA severity (Kraus et al., The OARSI histopathology initiative recommendations for histological assessments of osteoarthritis in the Guinea Pig. Osteoarthritis Cartilage, 2010 (18 S3) S35-S52). The articular cartilage area was analyzed quantitatively by immunohistochemistry (Pastoureau et al., Cartilage, bone and synovial histomorphometry in animal models of osteoarthritis. Osteoarthritis Cartilage. 2010 October; 18 Suppl 3:S106-12). Sections of guinea pig knees were stained with monoclonal antibody (monoclonal anti-chicken mouse collagen II, 6B3 clone—reference MAB887/250, Millipore). The measurement of the total area of articular cartilage was performed with Color deconvolution H DAB and Siox and the measurement of joint height by ImageJ (“Fit Ellipse” module). Statistical analyzes of scoring and quantification results were performed using a Kruskal-Wallis test followed by Dunn's test using PRISM software.

Data set [2] can be described thus: Raman scattering measurements of peptide conformation (stability of the peptide). The note with it: in water, peptide 0.9 mM, with or without HA 1%. It is filed as physicochemical. How it is done: Peptide alone, at a concentration of 0.9 mM (2.5 mg/ml), was dissolved in a Millipore filter treated water. Peptide+HA solution consists of peptide dissolved at 0.9 mM in a solution of HA (1.8 MDa) at 1% (10 mg/ml) in water.
Samples were placed in a suprasil quartz cell (5 mm path length) and excited by the 488 nm line of an Ar+ laser (Spectra Physics, CA, USA) with a ˜200 mW power at the sample. Scattered light at right angle was analyzed on a Jobin-Yvon T64000 (HORIBA Jobin-Yvon, France) in a single spectrograph configuration with a 1200 grooves per mm holographic grating and a holographic notch filter. Stokes Raman data were collected by means of a liquid nitrogen cooled CCD detection system (Spectrum One, Jobin-Yvon, France). The effective spectral slit width was set to ˜5 cm^−1. Each recorded spectrum corresponds to a total acquisition time of 1200 s. Buffer subtraction and smoothing of the observed Raman spectra could be performed using the GRAMS/AI package (Thermoage Galactic, MA, USA). The final presentation of these spectra was performed by means of SigmaPlot package (Systat Software Inc., CA, USA).

Setting [3] is: listed as peptide of the invention.
[4] abbreviates: five month after intra-articular injection, medial tibial surface of the knee, compared with sham (and HA).

As to GTSDRVYEKLAGSKNFFWKTFTSS [SEQ ID NO: 4], in data set [1], the cartilage thickness entry is recorded as “increased cartilage thickness” and the “sum of the scores representing the degradation of several structures in the joint (total scoring of degradation parameters)” value is given as “significantly decreased degradation of cartilage structure”. Also, in data set [1] (setting [3]), the cartilage thickness result is reported as “increase in the thickness of the cartilage” and the “sum of the scores representing the degradation of several structures in the joint (total scoring of degradation parameters)” value is “lowest”. In addition, in data set [1] (five month after intra-articular injection, ** p<0.001), the osteophytes scoring result is on record as “decreased osteophytes scoring”. In addition, the “type II Collagen content (staining)” value in data set [1] (five month after intra-articular injection, immunohistochemistry, compared with sham (and HA)) is on record as “greater synthesis of type II collagen”. In addition, in data set [1] (setting [4]), the “cartilage structure scoring (cartilage structural damage)” value is “lowest severity” and the “proteoglycan content (proteoglycan loss)” value is given as “lowest severity”. In addition, in data set [2], the “secondary conformation / structure stability by Raman spectra” value was “unstable structure in water”. Besides, the “secondary conformation / structure stability by Raman spectra” value in data set [2] (listed as peptide alone) is “Several (4) secondary conformations and 4 major bands”.
